Assay results as given in patent US7034035B2, “Fungicidal mono-, bi-, and tri-cycloheteroalkyl amides and their compositions, methods of use and preparation” (priority 1999, dated 2006).
Where two headings read alike, the source gives them in different places.

Legend:
[1] = system: Puccinia recondita—PUCCRT; assay: Brown Rust of Wheat, in vivo whole plant, 24 Hour Protectant; settings: inoculated after 24 hours; for pest or weed control at 100 ppm: Puccinia, read-out: PUCCRT in vivo 1 Day Protectant
Erysiphe graminis—ERYSGT = assay: Powdery Mildew of Wheat, in vivo whole plant, 24 Hour Protectant; settings: for pest or weed control at 100 ppm: Erysiphe, in Triticum aestivum, 24 h, read-out: ERYSGT in vivo 1 Day Protectant
[2] = system: Leptosphaeria nodorum—LEPTNO; assay: Glume Blotch of Wheat, in vivo whole plant, 24 Hour Protectant; settings: inoculated after 24 hours; for pest or weed control at 100 ppm: Leptosphaeria, 24 h, read-out: LEPTNO in vivo 1 Day Protectant
Septoria tritici—SEPTTR = assay: Leaf Blotch of Wheat, in vivo whole plant, 24 Hour Protectant; settings: inoculated after 24 hours; for pest or weed control at 100 ppm: Zymoseptoria tritici, read-out: SEPTTR in vivo 1 Day Protectant
[3] = system: Phytophthora infestans—PHYTIN; assay: whole plant or invertebrate; type: in vivo; settings: for pest or weed control at 100 ppm: Phytophthora, in Solanum lycopersicum, 24 h, read-out: PHYTIN in vivo 1 Day Protectant
Ustilago maydis (USTIMA) = assay: microbe, parasite or virus in culture; type: cell-based; settings: for inhibition of growth at 25 µg/mL: Mycosarcoma maydis, read-out: USTIMA in vitro Growth Inhibition
[4] = system: Rhizoctonia solani (RHIZSO); assay: microbe, parasite or virus in culture; type: cell-based; settings: for inhibition of growth at 25 µg/mL: Rhizoctonia solani, read-out: RHIZSO in vitro Growth Inhibition
[5] = system: Mycosphaerella graminicola (Septoria tritici—SEPTTR); assay: Inhibition of in vitro fungal growth, SEPTTR; type: cell-based; set-up: inhibition of growth: dose or concentration left out as unconfirmed; settings: for inhibition of growth: Zymoseptoria tritici, in vitro fungal growth
[6] = system: Stagonospora nodorum (Leptosphaeria nodorum—LEPTNO); assay: Inhibition of in vitro fungal growth, LEPTNO; type: cell-based; set-up: inhibition of growth: dose or concentration left out as unconfirmed; settings: for inhibition of growth: Leptosphaeria, in vitro fungal growth
[7] = system: Magnaporthe grisea (Pyricularia oryzae—PYRIOR); assay: microbe, parasite or virus in culture; type: cell-based; settings: for inhibition of growth at 25 µg/mL: Pyricularia oryzae, read-out: PYRIOR in vitro Growth Inhibition
[8] = system: Phytophthora infestans (PHYTIN); assay: microbe, parasite or virus in culture; type: cell-based; settings: for inhibition of growth at 25 µg/mL: Phytophthora infestans, read-out: PHYTIN in vitro Growth Inhibition
[9] = wheat plants sprayed at 100 ppm, control vs untreated plants
[10] = wheat (cultivar Yuma), sprayed at 100 ppm, control of fungal infection vs untreated plants

COc1ccnc(C(=O)Nc2cccc(CC3CC(C)(C)OC(C)(C)C3)c2)c1O [Compound 460]
pest or weed control at 100 ppm [1, 9]: 25 to 74%
pest or weed control at 100 ppm (Erysiphe graminis—ERYSGT): 25 to 74%
pest or weed control at 100 ppm [2, 9]: 25 to 74%
melting point: 149 to 153 °C
pest or weed control at 100 ppm (Septoria tritici—SEPTTR; [9]): 25 to 74%
pest or weed control at 100 ppm [3]: < 25%

C[C@H]1C2CC([C@H]3CCC[C@@H]23)[C@@H]1NC(=O)c1ncccc1O (stereo partly shown) [Compound 207]
USTIMA in vitro Growth Inhibition (Ustilago maydis (USTIMA)): − (key: +: at least 80% growth inhibition; −: less than 80% growth inhibition)
PUCCRT in vivo 1 Day Protectant [1, 10]: − (<25% control of fungal infection)
RHIZSO in vitro Growth Inhibition [4]: − (key: +: at least 80% growth inhibition; −: less than 80% growth inhibition)
ERYSGT in vivo 1 Day Protectant (Erysiphe graminis—ERYSGT; wheat (cultivar Monon), sprayed at 100 ppm, inoculated after 24 hours, control of fungal infection vs untreated plants): − (<25% control of fungal infection)
LEPTNO in vivo 1 Day Protectant [2, 10]: − (<25% control of fungal infection)
SEPTTR in vitro Growth Inhibition [5]: + (key: +: at least 80% growth inhibition; −: less than 80% growth inhibition)
LEPTNO in vitro Growth Inhibition [6]: + (key: +: at least 80% growth inhibition; −: less than 80% growth inhibition)
PYRIOR in vitro Growth Inhibition ([7]; in vitro fungal growth): + (at least 80% growth inhibition)
PHYTIN in vitro Growth Inhibition ([8]; in vitro fungal growth): − (less than 80% growth inhibition)
SEPTTR in vivo 1 Day Protectant (Septoria tritici—SEPTTR; [10]): − (<25% control of fungal infection)
PHYTIN in vivo 1 Day Protectant ([3]; tomato (cultivar Rutgers), sprayed at 100 ppm, inoculated after 24 hours, control of fungal infection vs untreated plants): − (<25% control of fungal infection)

COc1ccnc(C(=O)N[C@@H]2CC3CC2[C@@H](C(=O)OC(C)C)C3)c1O (stereo partly shown) [Compound 298]
inhibition of growth at 25 µg/mL (Ustilago maydis (USTIMA)): < 80%
pest or weed control at 100 ppm [1, 10]: 25 to 74%
inhibition of growth at 25 µg/mL [4]: > 80%
pest or weed control at 100 ppm (Erysiphe graminis—ERYSGT): < 25%
pest or weed control at 100 ppm [2, 10]: 25 to 74%
inhibition of growth [5]: < 80%
inhibition of growth [6]: < 80%
inhibition of growth at 25 µg/mL [7]: < 80%
inhibition of growth at 25 µg/mL [8]: < 80%
pest or weed control at 100 ppm (Septoria tritici—SEPTTR; [10]): 25 to 74%
pest or weed control at 100 ppm [3]: < 25%

Cc1ccnc(C(=O)NC2C(=O)OC(=O)[C@H](Cc3ccccc3)[C@@H](OC(=O)C(C)C)[C@H](C)OC2=O)c1O (stereo partly shown) [Compound 237]
inhibition of growth at 25 µg/mL (Ustilago maydis (USTIMA)): < 80%
pest or weed control at 100 ppm [1, 10]: 75 to 100%
inhibition of growth at 25 µg/mL [4]: < 80%
pest or weed control at 100 ppm (Erysiphe graminis—ERYSGT): < 25%
pest or weed control at 100 ppm [2, 10]: 25 to 74%
melting point: 122 to 134 °C
inhibition of growth [5]: < 80%
inhibition of growth [6]: < 80%
inhibition of growth at 25 µg/mL [7]: < 80%
inhibition of growth at 25 µg/mL [8]: < 80%
pest or weed control at 100 ppm (Septoria tritici—SEPTTR; [10]): 25 to 74%
pest or weed control at 100 ppm [3]: < 25%

CC(C)C(=O)O[C@H]1[C@H](C)OC(=O)[C@@H](NC(=O)c2cccnc2O)COC(=O)[C@@H]1Cc1ccccc1 [Compound 523]
pest or weed control at 100 ppm [1, 9]: 25 to 74%
pest or weed control at 100 ppm (Erysiphe graminis—ERYSGT): 25 to 74%
pest or weed control at 100 ppm [2, 9]: 75 to 100%
melting point: 188 to 190 °C (dec.)
pest or weed control at 100 ppm (Septoria tritici—SEPTTR; [9]): 25 to 74%
pest or weed control at 100 ppm [3]: 25 to 74%

CC1(C)CC(NC(=O)c2ccnnc2O)CC(C)(C)C1 [Compound 539]
pest or weed control at 100 ppm [1, 9]: 25 to 74%
pest or weed control at 100 ppm (Erysiphe graminis—ERYSGT): < 25%
pest or weed control at 100 ppm [2, 9]: 25 to 74%
melting point: 263 to 265 °C
pest or weed control at 100 ppm (Septoria tritici—SEPTTR; [9]): 25 to 74%
pest or weed control at 100 ppm [3]: < 25%

COc1ccnc(C(=O)NC2CC(C)(C)C(OC(=O)c3cccc(Cl)n3)C(C)(C)C2)c1O (stereo not shown) [Compound 269]
USTIMA in vitro Growth Inhibition (Ustilago maydis (USTIMA)): − (key: +: at least 80% growth inhibition; −: less than 80% growth inhibition)
RHIZSO in vitro Growth Inhibition [4]: − (key: +: at least 80% growth inhibition; −: less than 80% growth inhibition)
melting point: 55 to 56 °C
